Entries after “also recorded” stand apart in the source; their conditions may differ. Like-named read-outs stand apart in the source and are kept apart here.
Tests used:
[1] = target: T1, human mGlu5 (Homo sapiens, UniProt P41594); experiment: Calcium mobilization assay in human mGlu5-HEK293A cells (NAM, EC80 glutamate); type: cell-based; conditions: for %Glumin: efficacy of the NAM to reduce an EC80 response of glutamate
T1 construct: expressed in transfected cells

[2] = Binding in plasma from human (equilibrium dialysis); type: in vitro ADME; conditions: fraction unbound
Experimental: Binding in plasma from rat and human.
Determination of compounds’ fraction unbound (f u) in plasma from rat and human was conducted in vitro via equilibrium dialysis using HTDialysis membrane plates. Dialysis membranes (four paired strips per HTD assay) were hydrated as described by the manufacturer and inserted into the HTD plate, which was assembled and prepared for sample addition by the dispensing of blank buffer (DPBS, 100 µL/well) into the ‘top half’ of each membrane-split well. Each compound was diluted into plasma from each species (5 µM final concentration), which was aliquoted in triplicate to the ‘bottom half’ of the prepared HTD plate wells. The HTD plate was sealed and incubated for 6 hours at 37 °C. Following incubation, each well (both top and bottom halves) were transferred (20 µL) to the corresponding wells of a 96-shallow-well (V-bottom) plate. The daughter plates were then matrix-matched (buffer side wells received equal volume of plasma, and plasma side wells received equal volume of buffer), and extraction solution (120 µL; acetonitrile containing 50 nM carbamazepine as IS) was added to all wells of both daughter plates to precipitate protein and extract test article. The plates were then sealed and centrifuged (3500 rcf) for 10 minutes at ambient temperature. Supernatant (60 µL) from each well of the daughter plates was then transferred to the corresponding wells of new daughter plates (96-shallow-well, V bottom) containing water (Milli-Q, 60 µL/well), and the plates were sealed in preparation for LC-MS/MS analysis (see below). fu was calculated as (analyte to IS MS peak area ratio from Trans-buffer side) / (analyte to IS MS peak area ratio from Cis-plasma side). Mean values for each species were calculated from 3 replicates. […]
Mean values for each species were calculated from 3 replicates.

[3] = Intrinsic clearance in rat liver microsomes; type: in vitro ADME; conditions: predicted hepatic clearance from in vitro rat microsomal data
Experimental: Intrinsic Clearance in Rat and Human Liver Microsomes
The in vitro intrinsic clearance (CL int) was investigated in commercially obtained hepatic microsomes from rat and human donors using the substrate depletion (i.e., loss-of-parent vs. time, or t 1/2 method) approach with analyte detection via liquid chromatography-tandem mass spectrometry (LC-MS/MS). For each species, mean %parent remaining values at each time point were calculated from replicates raw data (analyte:IS peak area ratios) and used to determine in vitro t 1/2 and CLint.
Experiments were carried out using a robot-assisted (TECAN model Evo 200). Compound was incubated (1 µM final concentration) in buffer (100 mM potassium phosphate pH 7.4 with 3 mM MgCl2) containing hepatic microsomes (0.5 mg/mL final concentration) from multiple species, discretely, at 37 °C under constant orbital shaking. After 5 minutes (pre-incubation), reactions were initiated by addition of nicotinamide adenine dinucleotide phosphate (NADPH, 1 mM final concentration). At selected time intervals (0, 3, 7, 15, 25, and 45 minutes) post-addition of NADPH, aliquots (50 µL) were taken and placed into a 96-shallow-well plate containing ice cold acetonitrile (150 µL) with carbamazepine (IS, 50 nM). The plates were then centrifuged (3000 rcf at 4 °C) for 10 minutes. The supernatants were transferred to a new 96-shallow-well daughter plate and diluted (1:1 v/v) with water (Milli-Q filtered). The plates were then sealed in preparation for LC-MS/MS analysis (see below).
Raw LC-MS/MS peak area data generated from the assay samples were used to construct natural log-transformed %parent remaining vs. time plots (using t = 0 minute post-NADPH addition sample data as starting point set to 100%). In vitro compound half-life (t 1/2) values were obtained using the following […]
k is the slope from linear regression analysis of the natural log-transformed data (using means from Where all replicates at each time point). Resulting t 1/2 values were then used to calculate hepatic CLint values according to the following equation and with the use of species-specific scale-up factors for liver weight (grams) per total body weight (kg):
CL = 0.693 x 1 mL incubation x 45 mg microsomes x a gram liver
int in vitro t1/2 0.5 mg microsomes 1 gram liver kg body wt aScale-up factors used are 45 (rat) and 20 (human).1
Predicted hepatic clearance (CLhep) was calculated using the following equation: […]
Qh represents hepatic blood flow (mL/min/kg): 21 for human, 70 for rat, and 90 for mouse.

[4] = set-up: method as in PMID 31589885; conditions: led to termination of trials; attributed to off-target MAO-B; cited from earlier work
[5] = literature, cited from earlier work
[6] = rat, in vivo; cited from earlier work
[7] = human mGlu5-HEK293A cells, EC80 fixed concentration of glutamate, n = 2 in triplicate
[8] = human mGlu5-HEK293A cells, EC80 fixed concentration of glutamate, n = 2 in triplicate, read-out: IC50

T1 sequence (P41594 21-1212): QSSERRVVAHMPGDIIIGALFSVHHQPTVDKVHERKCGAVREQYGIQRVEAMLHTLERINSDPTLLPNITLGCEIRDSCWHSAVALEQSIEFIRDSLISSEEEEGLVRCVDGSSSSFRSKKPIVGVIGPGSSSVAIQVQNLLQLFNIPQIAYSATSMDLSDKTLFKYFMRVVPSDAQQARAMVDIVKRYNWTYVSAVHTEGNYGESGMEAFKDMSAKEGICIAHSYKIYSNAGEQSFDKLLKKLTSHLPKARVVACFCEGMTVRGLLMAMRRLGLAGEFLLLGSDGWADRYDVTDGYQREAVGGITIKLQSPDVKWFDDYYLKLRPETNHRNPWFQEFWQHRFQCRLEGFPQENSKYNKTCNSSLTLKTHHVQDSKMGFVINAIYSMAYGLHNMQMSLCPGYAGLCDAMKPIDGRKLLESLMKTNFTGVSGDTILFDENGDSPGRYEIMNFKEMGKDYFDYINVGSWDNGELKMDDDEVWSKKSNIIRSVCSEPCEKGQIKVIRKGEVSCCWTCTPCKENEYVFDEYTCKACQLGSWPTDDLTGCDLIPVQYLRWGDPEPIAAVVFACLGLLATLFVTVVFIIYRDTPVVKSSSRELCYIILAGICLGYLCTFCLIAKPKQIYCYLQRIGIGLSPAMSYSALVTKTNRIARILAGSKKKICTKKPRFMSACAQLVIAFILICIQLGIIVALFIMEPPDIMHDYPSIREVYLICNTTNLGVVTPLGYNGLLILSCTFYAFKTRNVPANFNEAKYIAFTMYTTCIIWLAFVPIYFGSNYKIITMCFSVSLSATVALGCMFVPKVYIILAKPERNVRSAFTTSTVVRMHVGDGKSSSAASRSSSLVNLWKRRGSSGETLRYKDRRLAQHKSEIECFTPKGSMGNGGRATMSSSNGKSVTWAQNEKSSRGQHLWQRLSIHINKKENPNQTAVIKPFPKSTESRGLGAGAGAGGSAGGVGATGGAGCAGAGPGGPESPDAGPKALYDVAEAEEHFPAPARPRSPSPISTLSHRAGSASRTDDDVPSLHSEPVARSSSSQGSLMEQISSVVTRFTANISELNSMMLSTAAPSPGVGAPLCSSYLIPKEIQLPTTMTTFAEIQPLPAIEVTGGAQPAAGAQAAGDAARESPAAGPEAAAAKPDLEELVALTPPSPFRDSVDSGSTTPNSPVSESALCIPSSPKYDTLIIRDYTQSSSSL

SMILES | %Glumin ([1]; human mGlu5-HEK293A cells) [%] | pIC50 [1, 7] | IC50 [1, 8] [µM] | other results
O=C(Nc1ccc(F)cn1)c1cc(O[C@@H]2CCOC2)c2sccc2n1 [19aB] | 2 | 7.22 | 0.061 | human f u,plasma [2]: 0.008; rat CLhep [3]: 55.1 mL/min/kg
O=C(Nc1cccc(F)n1)c1cc(O[C@@H]2CCOC2)c2sccc2n1 [19aC] | 6 | 5.98 | 1.07 | IC50 ([1]; in μM, read-out: hmGlu5 IC50): 1.1 µM
Cc1cccc(NC(=O)c2cc(O[C@@H]3CCOC3)c3sccc3n2)n1 [19aD] | 2 | 7.66 | 0.022 | human f u,plasma [2]: 0.005; rat CLhep [3]: 57.5 mL/min/kg
Cc1cccc(NC(=O)c2cc(O[C@@H]3CCOC3)c3sccc3n2)c1 [19aE] | 2 | 6.08 | 0.845 | 
Cc1nc(NC(=O)c2cc(O[C@@H]3CCOC3)c3sccc3n2)ccc1F [19aG] | 66 | < 5 | > 10 | 
CCc1csc(NC(=O)c2cc(O[C@@H]3CCOC3)c3sccc3n2)n1 [19aH] | 6 | 5.62 | 2.56 | 
O=C(Nc1nccs1)c1cc(O[C@@H]2CCOC2)c2sccc2n1 [19aK] | 3 | 5.75 | 1.83 | 
O=C(Nc1nc(CF)cs1)c1cc(O[C@@H]2CCOC2)c2sccc2n1 [19aL] | 2 | 7.27 | 0.055 | human f u,plasma [2]: 0.016; rat CLhep [3]: 41.8 mL/min/kg
O=C(Nc1nc(C(F)F)cs1)c1cc(O[C@@H]2CCOC2)c2sccc2n1 [19aM] | 18 | 6.50 | 0.32 | 
N#Cc1csc(NC(=O)c2cc(O[C@@H]3CCOC3)c3sccc3n2)n1 [19aN] | 3 | 6.27 | 0.559 | 
Cc1coc(NC(=O)c2cc(O[C@@H]3CCOC3)c3sccc3n2)n1 [19aP] | 50 | < 5 | > 10 | 
Cc1nsc(NC(=O)c2cc(O[C@@H]3CCOC3)c3sccc3n2)n1 [19aQ] | 73 | < 5 | > 10 | 
Cc1csc(NC(=O)c2cc(O[C@@H]3CCOC3)c3sc(C)cc3n2)n1 [19cA] | 2 | 6.45 | 0.357 | 
Cc1cc2nc(C(=O)Nc3ccc(F)cn3)cc(O[C@@H]3CCOC3)c2s1 [19cB] |  |  |  | IC50 (nM) [1, 7]: inactive
Cc1csc(NC(=O)c2cc(O[C@@H]3CCOC3)c3ccn(C)c3n2)n1 [19dA] | 2 | 7.04 | 0.093 | human f u,plasma [2]: 0.006; rat CLhep [3]: 52.3 mL/min/kg
Cn1ccc2c(O[C@@H]3CCOC3)cc(C(=O)Nc3ccc(F)cn3)nc21 [19dB] | 12 | 5.98 | 1.06 | 
Cn1ccc2nc(C(=O)Nc3ccc(F)cn3)cc(O[C@@H]3CCOC3)c21 [19eB] | 46 | < 5 | > 10 | 

SMILES | %Glumin ([1]; human mGlu5-HEK293A cells) [%] | pIC50 [1, 7] | IC50 [1, 8] [µM] | other results
Cc1csc(NC(=O)c2cc(O[C@@H]3CCOC3)c3ccccc3n2)n1 [19fA] | 6 | 6.74 | 0.192 | 
O=C(Nc1ccc(F)cn1)c1cc(O[C@@H]2CCOC2)c2ccccc2n1 [19fB] | 15 | 5.59 | 2.65 | 
Cc1csc(NC(=O)c2cc(OC3CC(C)(C)OC3(C)C)c3sccc3n2)n1 (stereo not drawn) [22b] |  |  |  | IC50 (nM) [1, 7]: inactive
Cc1csc(NC(=O)c2cc(OC3CCOCC3)c3sccc3n2)n1 [22d] | 25 | < 5 | > 10 | 
Cc1csc(NC(=O)c2cc(OC3COC3)c3sccc3n2)n1 [22e] | 2 | 6.76 | 0.185 | 
CO[C@@H](C)COc1cc(C(=O)Nc2nc(C)cs2)nc2ccsc12 [22g] | 12 | 6.17 | 0.682 | 
Cc1csc(NC(=O)c2cc(OC3CC(C#N)C3)c3sccc3n2)n1 (stereo not drawn) [22i] |  |  |  | human f u,plasma [2]: 0.005; rat CLhep [3]: 48.2 mL/min/kg
Cc1csc(NC(=O)c2cc(OC3CSC3)c3sccc3n2)n1 [22j] | 2 | 6.98 | 0.107 | human f u,plasma [2]: 0.001; rat CLhep [3]: 68.4 mL/min/kg
Cc1csc(NC(=O)c2cc(O[C@@H]3CCOC3)cnn2)n1 [27aA] |  |  |  | IC50 (nM) [1, 7]: inactive
O=C(Nc1ccc(F)cn1)c1cncc(O[C@@H]2CCOC2)c1 [27bB] |  |  |  | IC50 (nM) [1, 7]: inactive
O=C(Nc1ccc(F)cn1)c1cc(O[C@@H]2CCOC2)cc(F)c1F [27cB] | 3 | 5.88 | 1.57 | IC50 ([1]; in μM, read-out: hmGlu5 IC50): 1.6 µM
O=C(Nc1ccc(F)cn1)c1cc(O[C@@H]2CCOC2)ncn1 [27eB] |  |  |  | IC50 (nM) [1, 7]: inactive
Cc1csc(NC(=O)c2cc(O[C@@H]3CCOC3)c3ccncc3n2)n1 [27gA] | 2 | 5.69 | 2.05 | IC50 ([1]; in μM, read-out: hmGlu5 IC50): 2.1 µM
O=C(Nc1ccc(F)cn1)c1cc(O[C@@H]2CCOC2)c2ccncc2n1 [27gB] | 3 | 5.76 | 1.78 | 
N#Cc1cc(F)cc(-c2nc(-c3ccc(F)cn3)no2)c1 [AZD9272] |  |  |  | adverse effect in clinical trials [4]: psychosis-like symptoms
O=C(c1ccc(OC(F)F)c(C#Cc2ccccn2)c1)N1Cc2cccnc2C1 [GRN-529] |  |  |  | glutathione conjugation to the alkyne [5]: extensive glutathione conjugation; toxicology finding ([5]; nonhuman primates, 8-week regulatory toxicology study): biliary epithelial hyperplasia; also recorded: hepatotoxicity observed
Cc1csc(NC(=O)c2cc(F)cc(Oc3cncnc3)c2)n1 [VU0409106] |  |  |  | %F [6]: < 5%

From publication PMC12067350, “Discovery of Thieno[3,2‑b]pyridine-5-carboxamide and 2,3-Difluorobenzamide Negative Allosteric Modulators of Metabotropic Glutamate Receptor Subtype 5” (ACS Medicinal Chemistry Letters, 2025)
